In PMC3169616, “Unique Residues Involved in Activation of the Multitasking Protease/Chaperone HtrA from Chlamydia trachomatis” (PLoS ONE, 2011):

Key:
[1] = biological target: T1, CtHtrA (Chlamydia trachomatis serovar D, UniProt P18584); experiment: Oligomerisation assay (glutaraldehyde crosslinking, 3-8% TrisAcetate gel, silver stain); format: biochemical; settings: wild type CtHtrA 2 mg/ml, 100 mM sodium phosphate pH 7.0, 10 mins at 37°C, 0.5% glutaraldehyde fixation
T1 construct: His-tag; made in house; host or cells: E. coli BL21 (DE3), plasmid pETHtrA
T1 sequence (P18584 17-497): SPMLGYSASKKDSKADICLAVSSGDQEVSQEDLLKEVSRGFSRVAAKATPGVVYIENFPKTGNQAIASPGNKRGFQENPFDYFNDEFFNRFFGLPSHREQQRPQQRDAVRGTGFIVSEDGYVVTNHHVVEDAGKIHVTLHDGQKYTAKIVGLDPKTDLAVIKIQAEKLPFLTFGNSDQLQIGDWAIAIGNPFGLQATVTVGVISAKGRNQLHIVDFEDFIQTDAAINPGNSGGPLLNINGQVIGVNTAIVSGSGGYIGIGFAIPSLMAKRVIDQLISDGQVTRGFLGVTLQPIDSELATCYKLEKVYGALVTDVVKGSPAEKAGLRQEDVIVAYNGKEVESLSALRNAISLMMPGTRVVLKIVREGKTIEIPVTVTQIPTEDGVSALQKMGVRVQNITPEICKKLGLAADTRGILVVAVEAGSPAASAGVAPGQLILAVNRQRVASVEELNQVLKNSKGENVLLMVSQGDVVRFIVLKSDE
Experimental: (§1) E. coli DegP proteolysis activation involves the transition from resting hexamers via trimers to 12- and 24-mers following the peptide activator binding to the PDZ1 binding cleft. CtHtrA oligomer formation induced by Act1 addition was examined after incubation for 10 mins at 37°C. The wild type and mutant proteins were incubated with either the ß-casein based activator peptide (Act1), or with whole insulin (intact), or in the absence of any activator as a control. CtHtrA incubated in the absence of any added activators formed 24-mers with some hexamers detected after 10 mins (Fig. 5). […] The R299W mutant was present as hexamer and 24-mer in the control with no activator. […] The L302N mutant was not detected in any higher oligomeric form under any conditions. L302N was detected as faint hexamer and trimer but mostly monomer under all tested conditions (not visible on these gels). […] I365D was detected as hexamers, trimers, 12-mers, and some 24-mers when incubated in the absence of activators.
(§2) The oligomerisation of HtrA into 12- and 24-mer complexes has been independently detected for E. coli HtrA (DegP). The oligomerisation of HtrA (DegP) was triggered by peptides from digested ß-casein [18]. Assays to detect whether CtHtrA and site directed mutant protein oligomerisation was triggered by substrates were conducted essentially as previously described (Merdanovic et al., 2010). Briefly, 2 mg/ml protein solutions in 100 mM sodium phosphate buffer pH 7.0 were pre-incubated to the required temperature. The ligands (activator peptide, or insulin) were added and at 10 min, and the proteins were fixed using 0.5% glutaraldehyde. Samples were fixed at room temperature for 2 min prior to addition of 1 M Tris pH 7.5 to remove any excess glutaraldehyde. Samples were incubated for another 10 min at room temperature prior to addition of SDS PAGE reducing loading buffer. The protein samples were examined on 3–8% TrisAcetate gradient polyacrylamide gels (Novex, Invitrogen) by silver staining. The proteins used in this study were not initially denatured by treatment with urea as, the refolding, formation of oligomers, and protease activity was never successfully detected with denatured CtHtrA. All assays were conducted in duplicate on three separate occasions with at least two gels of each experiment completed for each assay condition.

[2] = tested on: CtHtrA R373A; experiment: Oligomerisation assay, mutated protein; format: biochemical, Chlamydia trachomatis; settings: R373A mutant, 10 mins incubation
Experimental: as §1, §2

[3] = tested on: CtHtrA R299W; experiment: Oligomerisation assay, mutated protein; format: biochemical, Chlamydia trachomatis; settings: R299W mutant, 10 mins incubation
Experimental: as §1, §2

[4] = tested on: CtHtrA I365D; experiment: Oligomerisation assay, mutated protein; format: biochemical, Chlamydia trachomatis; settings: I365D mutant, 10 mins incubation
Experimental: as §1, §2

[5] = biological target: T1, CtHtrA; experiment: MS and MS-MS analysis of peptide cleavage products; format: biochemical; settings: data not shown
Experimental: Bcas1 and Act1 peptides (150 µM concentration) digested with CtHtrA (71 µg) were analysed by online LC/MS/MS using a QStar Pulsar I (Applied Biosystems) in […] mode. Data acquired were converted into mzXML format using proteowizard (v2) and searched using ([…], the global proteome machine, ftp://ftp.thegpm.org/fasta/cRAP), against CtHtrA and Act1 and Bcas1 peptide sequences with an included decoy database of the reverse sequence for each protein. The search also included potential mass modifications accounting for the additional […] moieties on the N and C peptide termini, respectively. Matches with an expected ratio of <1 were considered identified. All raw data and mass spectra can be made available on request.

In the case of H-VLGPVRGPFPIIV-OH [Act1], the “CtHtrA oligomer formation induced by activator” value [1] is reported as “induced the protein to form 24-mers”, the “oligomer formation induced by activator” value [2] is reported as “resulted in 24-mer formation” and the “oligomer formation induced by activator” value [3] is reported as “Low levels of 24-mer were formed”. For the same substance, the “oligomer formation induced by activator” value [4] was “no 12-mers, but only hexamers and 24-mers were detected” and the “cleavage of activator peptide by CtHtrA, MALDI MS MS” value [5] was “No evidence of Act1 cleavage”.
